{
  "source": "patent US8748347B2",
  "about": "(priority 2009, dated 2014)",
  "key": {"Ramularia collo-cygni": {"test_system": "Ramularia collo-cygni", "test": "Preventive action on winter barley against Ramularia collo-cygni, field trial (Example 2)", "type": "in vivo", "settings": "barley variety Malwinta, natural infection, application at BBCH 49, evaluated 12 days after application, 0 = as untreated, 100 = not infected, UV Filter A 500 g ai/ha, Actives A & B 240 & 297 g ai/ha", "procedure": "As active substance a mixture of active substances was used called “Actives A & B”, which was prepared by mixing Active A and Active B. Active A was a fungicidal suspension concentrate comprising 6 wt % epoxiconazol, 20.8 wt % boscalid, 11.2-12.6 wt % fatty alcohol alkoxylate, C8-alkyl glucoside, and phenolsulfonic acid-formaldehyde-polycondensate sodium salt (commercially available pesticide formulation from BASF SE as Champion®). Active B a fungicidal suspoemulsion comprising 20.6 wt % fenpropimorph, 11 wt % pyraclostrobin, 4.1 wt % epoxiconazol, 20.5 wt % solvent naphtha, 11 wt % fatty alcohol ethoxylate and 4.8 wt % phenolsulfonic acid-formaldehyde-polycondensate sodium salt (commercially available pesticide formulation from BASF SE as Diamant®). UV Filter A was prepared as described in example 1.\nThe biological trial was conducted under field conditions. The barley variety Malwinta was planted and grown under standard conditions with adequate supply of water and nutrients. […] The disease incidences were evaluated 12 days after application.\nThe diseases were converted into efficacies. […] The expected efficacies of active compound mixtures were determined using Colby's formula [R. S. Colby, “Calculating synergistic and antagonistic responses of herbicide combinations”, Weeds 15, 20-22 (1967)] and compared with the observed efficacies."}, "Phytophthora infestans": {"test_system": "Phytophthora infestans", "type": "cell-based", "settings": "YPBG medium, 125 ppm, 18° C., seven days"}, "Septoria tritici": {"test_system": "Septoria tritici", "test": "Fungicidal action on pathogens, growth in medium analyzed at 405 nm (Example 3)", "type": "cell-based", "settings": "2% malt medium, 125 ppm, 18° C., seven days", "procedure": "Various pathogens were tested under respective test mediums and concentrations of UV filters (see Table 2). The pathogens were incubated at a temperature of 18° C. for seven days. The growth of the pathogens was compared to an untreated sample. Table 2 lists the growth compared to the untreated sample, which corresponds to 100%. The growth was analyzed at 405 nm."}},
  "data": [
    {"compound": "COCCOCCOCCOCCOCCOCCOCCOC(=O)C(C#N)=C(c1ccccc1)c1ccccc1", "note": "[UV Filter A, 2-Cyano-3,3-diphenyl-acrylsäure-[Pluriol A350E]-ester]", "values": [
      {"measurement": "Efficacy", "setting": "Ramularia collo-cygni", "value": 0},
      {"measurement": "Growth (%) relative to untreated sample", "setting": "Phytophthora infestans", "value": 78, "unit": "%"},
      {"measurement": "Growth (%) relative to untreated sample", "setting": "Septoria tritici", "value": 40, "unit": "%"}
    ]}
  ]
}
